From ChEMBL document CHEMBL1158616, “Biological activity of modified and exchanged 2-amino-5-nitrothiazole amide analogues of nitazoxanide” (2010)
In brackets after ≈: the same amount, converted by molar mass.

How the values were obtained:
[1] = test system: Clostridioides difficile; assay: Antimicrobial activity against Clostridium difficile; assay type: functional
[2] = test system: Campylobacter jejuni; assay: Antimicrobial activity against Campylobacter jejuni; assay type: functional
[3] = test system: Helicobacter pylori; assay: Inhibition of Helicobacter pyroli PFOR expressed in Escherichia coli at 40 uM
[4] = test system: Helicobacter pylori; assay: Antimicrobial activity against Helicobacter pylori; assay type: functional

| Compound | MIC [1] | MIC [2] | inhibition [3] | MIC [4] |
| --- | --- | --- | --- | --- |
| CCCCCC(=O)Nc1sc([N+](=O)[O-])cc1[N+](=O)[O-] | 0.9 µM (≈ 0.259 µg/mL) | 27.8 µM (≈ 7.99 µg/mL) | 80% | 2.6 µM (≈ 0.747 µg/mL) |
| O=C(Nc1sc([N+](=O)[O-])cc1[N+](=O)[O-])c1cccc(C(F)(F)F)c1 | 2.1 µM (≈ 0.759 µg/mL) | 4.2 µM (≈ 1.52 µg/mL) | 47% | 0.5 µM (≈ 0.181 µg/mL) |
| O=C(Nc1nc(Cl)c([N+](=O)[O-])s1)c1ccccc1 | 7 µM (≈ 1.99 µg/mL) | > 28.2 µM | 59% | 8.8 µM (≈ 2.5 µg/mL) |
| CCCCCC(=O)Nc1ncc([N+](=O)[O-])s1 | 2.1 µM (≈ 0.511 µg/mL) | 8.2 µM (≈ 1.99 µg/mL) | 70% | 0.5 µM (≈ 0.122 µg/mL) |
| O=C(Nc1ncc([N+](=O)[O-])s1)c1ccoc1 | 12.5 µM (≈ 2.99 µg/mL) | 2.1 µM (≈ 0.502 µg/mL) | 56% | 0.8 µM (≈ 0.191 µg/mL) |
| O=C(Nc1nc(Cl)c([N+](=O)[O-])s1)c1cccc(C(F)(F)F)c1 | 34.1 µM (≈ 12 µg/mL) | > 22.7 µM | 27% | 5.7 µM (≈ 2 µg/mL) |
| CCCCCC(=O)Nc1nc(Cl)c([N+](=O)[O-])s1 | 36 µM (≈ 10 µg/mL) | 28.8 µM (≈ 8 µg/mL) | 63% | 0.9 µM (≈ 0.25 µg/mL) |
| O=C(Nc1sc([N+](=O)[O-])cc1[N+](=O)[O-])c1cccs1 | 1 µM (≈ 0.299 µg/mL) | 20 µM (≈ 5.99 µg/mL) | 77% | 2.5 µM (≈ 0.748 µg/mL) |
| O=C(Nc1sc([N+](=O)[O-])cc1[N+](=O)[O-])c1ccoc1 | 0.4 µM (≈ 0.113 µg/mL) | 3.5 µM (≈ 0.991 µg/mL) | 66% | 2.6 µM (≈ 0.736 µg/mL) |
| O=C(Nc1ncc([N+](=O)[O-])s1)c1cccc(C(F)(F)F)c1 | 4.7 µM (≈ 1.49 µg/mL) | 0.4 µM (≈ 0.127 µg/mL) | 47% | 3.5 µM (≈ 1.11 µg/mL) |
| O=C(Nc1nc(Cl)c([N+](=O)[O-])s1)c1cccs1 | 13.8 µM (≈ 4 µg/mL) | > 13.8 µM | 51% | 6.9 µM (≈ 2 µg/mL) |
| O=C(Nc1sc([N+](=O)[O-])cc1[N+](=O)[O-])c1ccccc1 | 0.9 µM (≈ 0.264 µg/mL) | 27.3 µM (≈ 8.01 µg/mL) | 55% | 1.3 µM (≈ 0.381 µg/mL) |
| O=C(Nc1ncc([N+](=O)[O-])s1)c1cccs1 [TENONITROZOLE] | 2.9 µM (≈ 0.74 µg/mL) | 1 µM (≈ 0.255 µg/mL) | 50% | 2.9 µM (≈ 0.74 µg/mL) |
| CC(=O)Oc1ccccc1C(=O)Nc1ncc([N+](=O)[O-])s1 [NITAZOXANIDE] | 39.1 µM (≈ 12 µg/mL) | 0.8 µM (≈ 0.246 µg/mL) | 54% | 13 µM (≈ 3.99 µg/mL) |
